Experimental data published in the supplement of paper PMC10331698.
± gives the standard deviation of the averaged measurements.

Tests used:
Experiment in all cases: level (log10 ratio to DMSO vehicle control); higher = higher biomarker level / cell amount than vehicle control
[1] = compound: O=C(O)C(F)(F)OC(F)(F)C(F)(F)OC(F)(F)C(F)(F)OC(F)(F)C(F)(F)C(F)(F)C(F)(F)F [Perfluoro-3,6,9-trioxatridecanoic acid] (in DMSO); details: 6700 nM
Description: (§1)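 BioMAP Diversity Plus panel of 12 human primary cell co-culture systems (3C, 4H, LPS, SAg, BT, BF4T, BE3C, CASM3C, HDF3CGF, KF3CT, MyoF, Mphg). Compounds were added 1 h before stimulation and left for 24 h (MyoF 48 h; BT 72 h for soluble read-outs or 6 d for IgG). Biomarkers were read by ELISA, cytotoxicity by SRB, PBMC viability and proliferation by Alamar Blue. Each well value was divided by the mean of 8 DMSO control wells on the same plate and log10 transformed; duplicate blinded samples were tested at 4 concentrations.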

[2] = compound: CN(C(=O)C(F)(F)C(F)(F)C(F)(F)F)[Si](C)(C)C [N-Methyl-N-trimethylsilylheptafluorobutyramide] (in DMSO)
Description: as §1

Perfluorononanoic acid = compound: O=C(O)C(F)(F)C(F)(F)C(F)(F)C(F)(F)C(F)(F)C(F)(F)C(F)(F)C(F)(F)F [Perfluorononanoic acid] (in DMSO)
Description: as §1

[3] = compound: OCC(F)(F)C(F)(F)C(F)(F)C(F)F [1H,1H,5H-Perfluoropentanol] (in DMSO)
Description: as §1

[4] = compound: NS(=O)(=O)C(F)(F)C(F)(F)C(F)(F)C(F)(F)C(F)(F)C(F)(F)C(F)(F)C(F)(F)F [Perfluorooctanesulfonamide] (in DMSO)
Description: as §1

Octafluoroadipic acid = compound: O=C(O)C(F)(F)C(F)(F)C(F)(F)C(F)(F)C(=O)O [Octafluoroadipic acid] (in DMSO)
Description: as §1

[5] = compound: C=C(C)C(=O)OCCC(F)(F)C(F)(F)C(F)(F)C(F)(F)C(F)(F)C(F)(F)C(F)(F)C(F)(F)F [8:2 Fluorotelomer methacrylate] (in DMSO)
Description: as §1

[6] = compound: O=C(O)CCC(F)(C(F)(F)F)C(F)(F)F [4,4-bis(Trifluoromethyl)-4-fluoropropanoic acid] (in DMSO)
Description: as §1

Test System | level (log10) [1] | level (log10) ([2]; 6700 nM) | level (log10) ([2]; 20000 nM) | level (log10) ([2]; 60000 nM) | level (log10) (Perfluorononanoic acid; 6700 nM) | level (log10) (Perfluorononanoic acid; 20000 nM) | level (log10) ([3]; 6700 nM) | level (log10) ([3]; 20000 nM) | level (log10) ([3]; 60000 nM) | level (log10) ([4]; 6700 nM) | level (log10) ([4]; 20000 nM) | level (log10) (Octafluoroadipic acid; 6700 nM) | level (log10) (Octafluoroadipic acid; 20000 nM) | level (log10) (Octafluoroadipic acid; 60000 nM) | level (log10) ([5]; 6700 nM) | level (log10) ([5]; 20000 nM) | level (log10) ([6]; 6700 nM) | level (log10) ([6]; 20000 nM) | level (log10) ([6]; 60000 nM)
BE3C:CD87/uPAR | -0.48 ± 0.05 | 0.0055 ± 0.016 | 0.0275 ± 0.019 | 0.0275 ± 0.026 | 0.046 ± 0.013 | 0.0495 ± 0.019 | -0.012 ± 0.0085 | -0.01 ± 0.0071 | 0 ± 0.027 | -0.01 ± 0.0071 | -0.0025 ± 0.019 | -0.0115 ± 0.00071 | 0.0035 ± 0.00071 | 0.0125 ± 0.018 | -0.0135 ± 0.023 | 0.0015 ± 0.036 | 0.0005 ± 0.028 | -0.004 ± 0.044 | -0.01 ± 0.0028
BE3C:CXCL8/IL-8 | -0.259 ± 0.0014 | 0.019 ± 0.054 | 0.0175 ± 0.061 | 0.055 ± 0.11 | -0.03 ± 0.0057 | -0.175 ± 0.0042 | -0.0065 ± 0.077 | 0.0185 ± 0.12 | 0.0875 ± 0.12 | -0.123 ± 0.0099 | -0.192 ± 0.013 | 0.0325 ± 0.0092 | 0.0355 ± 0.021 | 0.058 ± 0.068 | -0.002 ± 0.014 | -0.008 ± 0.0028 | -0.0055 ± 0.011 | -0.025 ± 0.033 | -0.019 ± 0.033
BE3C:CXCL9/MIG | -1.19 ± 0.017 | 0.0065 ± 0.018 | 0.0005 ± 0.00071 | 0.004 ± 0.027 | -0.019 ± 0.013 | -0.0195 ± 0.0021 | -0.0075 ± 0.012 | 0.0135 ± 0.0092 | 0.013 ± 0.018 | -0.0015 ± 0.0021 | 0.013 ± 0.013 | 0.0105 ± 0.013 | 0.012 | 0.0075 ± 0.016 | -0.01 ± 0.014 | -0.0095 ± 0.022 | -0.01 ± 0.014 | -0.0085 ± 0.022 | -0.0135 ± 0.016
BE3C:CXCL10/IP-10 | -1.1 ± 0.023 | -0.006 ± 0.0028 | 0.005 ± 0.0014 | 0.007 ± 0.011 | -0.039 ± 0.025 | -0.145 ± 0.031 | -0.0015 ± 0.016 | 0.005 ± 0.017 | 0.0165 ± 0.042 | -0.142 ± 0.0078 | -0.414 ± 0.0028 | -0.0035 ± 0.0035 | -0.002 ± 0.011 | 0.017 ± 0.023 | -0.0005 ± 0.018 | -0.0105 ± 0.028 | 0.006 ± 0.034 | 0.0035 ± 0.023 | -0.0045 ± 0.0035
BE3C:CXCL11/I-TAC | -0.992 ± 0.025 | -0.01 ± 0.0071 | 0.003 ± 0.014 | 0.012 ± 0.031 | -0.01 ± 0.016 | -0.0315 ± 0.044 | 0.003 ± 0.017 | 0.0165 ± 0.028 | 0.0315 ± 0.046 | -0.0565 ± 0.013 | -0.183 ± 0.06 | -0.0025 ± 0.0078 | 0.0085 ± 0.012 | 0.0085 ± 0.0078 | 0.0215 ± 0.053 | 0.025 ± 0.078 | 0.0195 ± 0.016 | 0.0015 ± 0.012 | -0.006 ± 0.0099
BE3C:EGFR | -0.212 ± 0.022 | -0.0065 ± 0.00071 | -0.0165 ± 0.013 | -0.01 ± 0.028 | -0.023 ± 0.028 | -0.0285 ± 0.03 | -0.008 ± 0.0099 | 0.0105 ± 0.011 | 0.032 ± 0.065 | -0.0005 ± 0.00071 | -0.044 ± 0.0014 | -0.012 ± 0.017 | -0.0015 ± 0.005 | 0.0105 ± 0.016 | -0.007 ± 0.02 | -0.01 ± 0.031 | 0.003 ± 0.02 | -0.0105 ± 0.018 | -0.012 ± 0.014
BE3C:HLA-DR | -0.8695 ± 0.0078 | -0.009 ± 0.0014 | -0.0105 ± 0.0021 | 0.009 ± 0.033 | -0.039 ± 0.064 | -0.066 ± 0.02 | -0.017 ± 0.011 | -0.0095 ± 0.016 | 0.019 ± 0.023 | -0.0975 ± 0.013 | -0.136 ± 0.011 | 0 ± 0.021 | 0.0045 ± 0.018 | 0.012 ± 0.0028 | -0.004 ± 0.021 | 0.0085 ± 0.033 | -0.011 | -0.0125 ± 0.005 | 0.0065 ± 0.029
BE3C:IL-1alpha | -0.469 ± 0.052 | 0.0045 ± 0.005 | -0.0075 ± 0.019 | 0.032 ± 0.014 | -0.032 ± 0.024 | -0.0625 ± 0.023 | -0.0275 ± 0.0064 | -0.0155 ± 0.018 | 0.0035 ± 0.023 | -0.005 ± 0.023 | -0.066 ± 0.017 | 0.0155 ± 0.0064 | 0.009 ± 0.023 | -0.031 ± 0.0028 | -0.018 ± 0.02 | -0.0005 ± 0.0078 | 0.0065 ± 0.022 | -0.0105 ± 0.0078 | 0.007 ± 0.02
BF4T:CCL2/MCP-1 | -0.155 ± 0.11 | 0.002 ± 0.0014 | 0.002 ± 0.0042 | 0.018 ± 0.018 | -0.0115 ± 0.029 | -0.154 ± 0.026 | -0.0175 ± 0.036 | 0.0495 ± 0.023 | 0.0305 ± 0.074 | -0.084 ± 0.0071 | -0.0565 ± 0.018 | 0.0145 ± 0.012 | -0.011 | 0.0225 ± 0.057 | -0.0005 ± 0.028 | -0.051 ± 0.031 | 0.016 ± 0.0028 | 0.026 ± 0.018 | 0.0015 ± 0.016
BF4T:CCL26/Eotaxin-3 | -0.395 ± 0.018 | -0.0025 ± 0.035 | -0.0135 ± 0.015 | 0.0045 ± 0.0078 | -0.0345 ± 0.037 | -0.288 ± 0.0085 | 0.0125 ± 0.059 | 0.0235 ± 0.005 | 0.049 ± 0.044 | -0.117 ± 0.017 | -0.169 ± 0.014 | 0.0055 ± 0.025 | -0.007 ± 0.042 | 0.009 ± 0.04 | -0.02 ± 0.0099 | -0.069 ± 0.013 | 0.028 ± 0.024 | 0.004 ± 0.0028 | 0.0185 ± 0.042
BF4T:CD54/ICAM-1 | -0.0705 ± 0.019 | -0.0145 ± 0.0064 | -0.0045 ± 0.023 | -0.0115 ± 0.00071 | -0.0035 ± 0.021 | -0.05 ± 0.014 | -0.0035 ± 0.019 | 0.01 ± 0.013 | 0.02 ± 0.021 | -0.029 ± 0.0014 | -0.06 ± 0.045 | -0.001 ± 0.025 | -0.007 ± 0.017 | 0.0065 ± 0.029 | -0.023 ± 0.0099 | 0.001 ± 0.0099 | 0.0175 ± 0.013 | 0.006 ± 0.0071 | 0.002 ± 0.013
BF4T:CD90 | 0.0045 ± 0.0021 | -0.0225 ± 0.022 | -0.006 ± 0.0071 | 0.0065 ± 0.005 | -0.0095 ± 0.0035 | -0.045 ± 0.0028 | -0.011 ± 0.0085 | 0.0005 ± 0.00071 | 0.003 ± 0.0057 | -0.0275 ± 0.012 | -0.0585 ± 0.016 | 0.005 ± 0.0042 | -0.0075 ± 0.0035 | -0.006 | -0.0165 ± 0.015 | 0 ± 0.0099 | -0.0095 ± 0.026 | -0.0055 ± 0.019 | 0.0005 ± 0.0078
BF4T:CD106/VCAM-1 | -0.205 ± 0.067 | 0.0095 ± 0.025 | 0.0315 ± 0.015 | 0.0035 ± 0.026 | -0.084 ± 0.086 | -0.129 ± 0.035 | -0.019 ± 0.085 | 0.0225 ± 0.029 | 0.021 ± 0.081 | -0.052 ± 0.0057 | -0.1125 ± 0.00071 | -0.01 ± 0.0014 | -0.0095 ± 0.016 | 0.002 ± 0.048 | -0.0225 ± 0.00071 | -0.0495 ± 0.022 | 0.018 ± 0.011 | -0.011 ± 0.031 | -0.0445 ± 0.0021
BF4T:CXCL8/IL-8 | 0.0165 ± 0.049 | -0.008 ± 0.024 | -0.0025 ± 0.018 | 0.0025 ± 0.019 | 0.048 ± 0.0028 | 0.0165 ± 0.00071 | 0.037 ± 0.083 | 0.0505 ± 0.07 | 0.0685 ± 0.046 | 0.003 ± 0.0057 | 0.0405 ± 0.013 | 0.0435 ± 0.0021 | -0.0005 ± 0.021 | 0.013 ± 0.05 | -0.026 ± 0.014 | -0.023 ± 0.021 | -0.0085 ± 0.03 | 0.028 ± 0.028 | 0.0115 ± 0.0021
BF4T:IL-1alpha | -0.055 ± 0.013 | -0.015 ± 0.016 | -0.0135 ± 0.016 | 0.015 ± 0.042 | -0.043 ± 0.0099 | -0.029 ± 0.025 | -0.02 ± 0.0085 | 0.03 ± 0.044 | 0.0195 ± 0.018 | 0.0095 ± 0.012 | -0.0455 ± 0.022 | -0.003 ± 0.0014 | -0.016 ± 0.0042 | 0.002 ± 0.0014 | -0.009 ± 0.0057 | 0.008 ± 0.016 | -0.0005 ± 0.0092 | -0.0135 ± 0.019 | 0.003 ± 0.031
